Entries after “also recorded” stand apart in the source; their conditions may differ.

The subject of data set [1] is NF-κB subunits p65 and p50. In words: NF-κB subunit DNA binding and activation in OSCC cells. It counts as cell-based, human. The following applies: data not shown. As for the experimental part:
Twenty four hour sera-deprived cells were treated for an additional 24 hours in sera free media with the following: 1) 0.01% DMSO (vehicle control), 2) 5 μM 4-HPR, 3) 2.5 μM 2-ME, 4) 1 μg/ml tocilizumab (TOC, […]) 5) 5 μM 4-HPR+2.5 μM 2-ME, 6) 5 μM 4-HPR+1 μg/ml TOC, 7) 2.5 μM 2-ME+1 μg/ml TOC, 8) 5 μM 4-HPR+2.5 μM 2-ME+1 μg/ml TOC. Following treatment, conditioned media were collected (ELISAs for IL-6, sIL-6R, TGF-α, VEGF, EGF, R&D Systems, Minneapolis, Minn.) and nuclear and cytosolic lysates (Nuclear Extract Kit, Active Motif, Carlsbad, Calif.) isolated for EMSAs (STAT3, NFκB p50 and p65, TransAM Transcription Factor ELISAs, Active Motif) and cytosolic and nuclear extracts for Westerns (NE-PER Nuclear and Cytoplasmic Extraction Reagents, ThermoFisher Scientific, Waltham Mass.). […]

Data set [2] deals with SCC2095sc cells. In words: OSCC tumor xenografts, tumor volume. It counts as in vivo, nude mice. The settings on record: for inhibition of established OSCC tumor growth / tumor size: discussion of xenograft study. As for the experimental part:
One million SCC2095sc cells (suspended in 100 μl Matrigel) were subcutaneously injected in flanks of 6 to 7 week old male nude mice (n=6 per treatment group). By day 14 post injection, all mice had palpable and measurable tumors. Treatment began on day 15. Caliper-based tumor measurements were recorded daily and final tumor volumes calculated via tumor volume V=(length×width)×½. Treatment groups consisted of: 1) control (PBS injections)+blank (no drug) polylactide co-glycolide (PLGA) implants, 2) 2-methoxyestradiol (2-ME) (1 μg/100 μl PBS, b.i.d.)+blank PLGA implant, 3) fenretinide (4-HPR) releasing PLGA implant+PBS injections, 4) tocilizumab (TOC) q.d. (0.3 μg/100 μl PBS)+PLGA blank implant, 5) 2-ME (1 μg/100 μl PBS, b.i.d.)+4-HPR releasing PLGA implant, 6) 2-ME (1 μg/100 μl PBS, b.i.d.)+TOC q.d. (0.3 μg/100 μl PBS)+blank PLGA implant, 7) TOC q.d. (0.3 μg/100 μl PBS)+4-HPR releasing PLGA implant, 8) 2-ME (1 μg/100 μl PBS, b.i.d.)+TOC q.d. (0.3 μg/100 μl PBS)+4-HPR releasing PLGA implant. In previous studies that employed younger mice tumors of varying sizes were disbursed among all treatment groups. Due to the older age of mice >6 weeks and the accompanying cage aggression tumor size distribution was not feasible in these studies. As a result, mean tumor volumes varied appreciably among treatment groups. PLGA implants (trocar placement) and injections were placed in the center of the tumor. Fluid dispersion throughout tumor was noted during injections. At day 28 post OSCC xenograft placement the mice were sacrificed, OSCC tumors along with lung and liver tissues and sera were harvested (for PK and histologic analyses). […] Provided the discrepancy in pretreatment tumor volumes (TOC the lowest, triple treatment second highest with its mean nearly two fold higher than TOC mean), the TOC+2-ME+4-HPR data are especially creditable.
(§1) SCC2095sc cells [10^6 cells suspended in 100 μl Matrigel (Corning Life Sciences, Corning, N.Y.)] were subcutaneously injected in the flanks of 6 week old male nude mice (n=6 per treatment group). Tumor measurements were recorded daily with calipers (greatest length and greatest width) and final tumor volumes calculated via tumor volume V=(length×width)×½. Treatment groups consisted of: 1) control (PBS injections)+blank (no drug) PLGA implants, 2) 2-ME (1 μg/100 μl PBS, b.i.d.)+blank PLGA implant, 3) 4-HPR releasing PLGA implant+PBS injections, 4) TOC q.d. (0.3 μg/100 μl PBS)+PLGA blank implant, 5) 2-ME (1 μg/100 μl PBS, b.i.d.)+4-HPR releasing PLGA implant, 6) 2-ME (1 μg/100 μl PBS, b.i.d.)+TOC q.d. (0.3 μg/100 μl PBS)+blank PLGA implant, 7) TOC q.d. (0.3 μg/100 μl PBS)+4-HPR releasing PLGA implant, 8) 2-ME (1 μg/100 μl PBS, b.i.d.)+TOC q.d. (0.3 μg/100 μl PBS)+4-HPR releasing PLGA implant. By day 14 post injection, all mice had measurable tumors and treatment began on day 15. […] Pretreatment mean tumor volumes therefore varied among treatment groups. PLGA implants (via trocar) and injections were placed in the center of the tumor. At day 28 post OSCC xenograft placement final tumor measurements were obtained, the mice were euthanized and OSCC tumors along with lung, liver and sera were harvested for pharmacokinetic, histologic and IHC analyses (Ki-67, cleaved caspase-3 and involucrin). Image analyses of the nuclear stains (Ki-67 and cleaved caspase 3) were conducted using Image-Pro Plus 6.2 software (Media Cybernetics, Rockville, Md.).

Data set [3] has as its system SCC2095sc cells. In words: IHC of OSCC xenograft tumors (Ki-67, cleaved caspase 3, involucrin). The class given is in vivo, nude mice. The following applies: qualitative. An excerpt:
IHC images representative of all of the groups are presented. The PLGA implants are visible as a clear cylindrical object in every photomicrograph except the TOC and 2-ME+TOC treatment. To facilitate PLGA implant recognition, arrows have been placed within the implants. Both the Ki-67 and caspase 3 stains are located within the nucleus. Qualitative Ki67 staining assessment was most apparent at the periphery of the tumors in all groups. In contrast to the abundant Ki-67 staining, cleaved caspase 3 was not nearly as prominent.
(Image scale 4× and 10× for smaller and larger photomicrographs, respectively).
SCC2095sc cells [10^6 cells suspended in 100 μl Matrigel (Corning Life Sciences, Corning, N.Y.)] were subcutaneously injected in the flanks of 6 week old male nude mice (n=6 per treatment group). Tumor measurements were recorded daily with calipers (greatest length and greatest width) and final tumor volumes calculated via tumor volume V=(length×width)×½. Treatment groups consisted of: 1) control (PBS injections)+blank (no drug) PLGA implants, 2) 2-ME (1 μg/100 μl PBS, b.i.d.)+blank PLGA implant, 3) 4-HPR releasing PLGA implant+PBS injections, 4) TOC q.d. (0.3 μg/100 μl PBS)+PLGA blank implant, 5) 2-ME (1 μg/100 μl PBS, b.i.d.)+4-HPR releasing PLGA implant, 6) 2-ME (1 μg/100 μl PBS, b.i.d.)+TOC q.d. (0.3 μg/100 μl PBS)+blank PLGA implant, 7) TOC q.d. […]

Data set [4] can be described thus: In vitro release of 2-ME from PLGA. The class given is physicochemical. The following applies: two low molecular weight acid-capped PLGA 50/50s, 10% 2-ME loading. An excerpt:
In one embodiment, 2-ME in PLGA can maximize drug loading and facilitate continuous release of the steroid over the correct time scale of release in vivo. Maximizing drug loading can provide more flexibility for dosing and increase the probability of attaining local therapeutic levels. IN one embodiment, the steroid is slowly and continuously released for >1 month in vitro from two different low molecular weight acid-capped PLGA 50/50s at 10% 2-ME loading.
2-ME with/without excipients can be combined with acid-capped PLGA 50/50 (13-24 kD) in acetone and extruded. Drug loading is typically about 10-50%. Drug loading can be determined by HPLC after dissolving implants in acetonitrile. Release kinetics in vitro can be performed in PBS+0.02% Tween 80 (PBST) at 37° C. under perfect sink conditions with HPLC detection.

For data set [5] the following is noted: cited from earlier work.
Data set [6] in a line: 4-HPR release from PLGA implants, tumor and sera levels (UPLC/UV). The following applies: UPLC/UV vs calibration standard. It counts as in vivo, nude mice.
Excerpt: Determination of 4-HPR tumor levels entailed recording tumor wet mass, addition of internal standard (acitretin) and RIPA lysis buffer, followed by homogenization, addition of acetonitrile and centrifugation. Acetretin percent recovery was compared to a RIPA buffer/acetonitrile extraction control solution spiked with equivalent amount of acetretin and 4-HPR. Sera preparation entailed addition of acetretin and acetonitrile, sonication, followed by centrifugation.
as §1

Data set [7] relates to EGFR, ERK1/2 and STAT3 phosphorylation. Description: Effect of receptor targeted inhibitors on OSCC signaling (immunoblot). The class given is cell-based, human. The settings on record: 100 nM. How it is done:
The accompanying histogram depicts levels of phosphorylated […], ERK1/2 and STAT3 relative to GAPDH.
Dosing levels were determined by concurrent proliferation and viability studies in conjunction with literature values. The cells in every treatment group were then stimulated for 20 minutes with: vehicle (1 μl ddH2O), 50 ng/ml EGF, 50 ng/ml VEGF, or 50 ng/ml EGF+50 ng/ml VEGF, followed by standard immunoblotting and data normalization relative to GAPDH. […] Immunoblot images were captured (Li-Cor Odyssey imager) and analyzed (Li-Cor Image Studio, Version 4.0) to depict effects on treatment on phosphorylation relative to respective levels of GAPDH.

The subject of data set [8] is sIL-6R. Description: sIL-6R release from OSCC cell lines (ELISA). The class given is cell-based, human. The following applies: 5 μM 4-HPR, 2.5 μM 2-ME, 1 μg/ml TOC, 24 h. How it is done: FIGS. 5A and 5B show the evaluation of the effects of single and combination treatment of fenretinide (4-HPR, 5 μM), 2-methoxyestradiol (2-ME, 2.5 μM) and the IL-6R inhibitor TOC (1 ug/ml) on STAT3-DNA binding and on release of the stromal and tumor cell activating, trans-signaling molecule, sIL-6R. (A) Treatment effects of STAT3-DNA binding. All cell lines with constitutive pSTAT3 expression (2095sc, JSCC1, JSCC2) were sera deprived for 24 h, followed by an additional 24 hours of treatment in sera-free medium that contained: control (0.1% DMSO), 5 μM 4-HPR, 2.5 μM 2-ME, 1 μg/ml TOC (initial agent concentrations same for single and combinations). As the JSCC3 cells don't constitutively express pSTAT3, these cells underwent 24 h stimulation in base medium supplemented with 10 ng/mL of IL-6 and 5 ng/mL of TGF-α, with or without 4-HPR, 2-ME and TOC followed by harvest. […] (n=13, Kruskal Wallis ANOVA followed by Dunn's Multiple Comparison post hoc test). […] (B) Effects of treatment on cell line release of sIL-6R. All four cell lines released sIL-6R [levels ranges from ˜750 fg/10^6 (JSCC2 cells baseline) to ˜3,000 fg/10^6 cells (stimulated JSCC3 cells, baseline production JSCC3˜2,000 fg/10^6 cells). […]

The test system of data set [9] is HNSCC tumor. The settings on record: 100 μg i.p., scid mice, reference 48; cited from earlier work.

With `COc1cc2c(cc1O)CC[C@@H]1[C@@H]2CC[C@]2(C)[C@@H](O)CC[C@@H]12` [2-ME, 2-Methoxyestradiol], in data set [1], the “NF-κB activation in OSCC cells” value is given as “didn't inhibit”. The “tumor cell invasion and metastasis” value in data set [2] (2-ME treatment group) is “Lymphovascular (several mice) and perineural (single mouse) invasion”. Also, the “inhibition of established OSCC tumor growth / tumor size” value in data set [2] is “lack of 2-ME efficacy”. Besides, the “involucrin expression (differentiation)” value in data set [3] was “most intense expression”. The “duration of slow continuous release in vitro” value in data set [4] is on record as over 1 month. For the same compound, the half-life in data set [5] is reported as about 4 h.

As to `CC1=C(/C=C/C(C)=C/C=C/C(C)=C/C(=O)Nc2ccc(O)cc2)C(C)(C)CCC1=O` [4-oxo-4-HPR, 4-oxo-fenretinide], the “oxidized metabolite in tumor or sera samples” value in data set [6] is given as “no evidence”.

For the compound `COC(=O)c1ccc2c(c1)NC(=O)/C2=C(\Nc1ccc(N(C)C(=O)CN2CCN(C)CC2)cc1)c1ccccc1` [Vargatef], the “phosphorylated STAT3 despite treatment” value in data set [7] (JSCC1 and JSCC2 cells) was “high to moderate levels of phosphorylated STAT3 persisted; also recorded: pSTAT3 persisted”. In addition, the “phosphorylation at the EGFR, ERK1/2 and STAT3 levels” value in [7] (JSCC3 cells, 1 h pretreatment, EGF/VEGF stimulation) is on record as “reduced phosphorylation; also recorded: blocked STAT3 phosphorylation”.

For the compound “TOC: humanized monoclonal antibody to the IL-6R receptor tocilizumab”, the sIL-6R release entry in data set [8] was “significantly reduced”. In [8] (listed as tocilizumab), the sIL-6R release result was “significantly inhibited”. In data set [2] (day 15 to day 28, intratumoral treatment), the “mean tumor fold size increase” value is given as 2.13 fold. Also, the “inhibition of established OSCC tumor growth / tumor size” value in [2] is listed as “significantly inhibited OSCC tumor growth”. In data set [2] (intratumoral, TOC 0.3 μg q.d., 2-ME 1 μg b.i.d., 4-HPR PLGA implant, paired t test), the “increase in tumor volume over 14 days” value is listed as “prevented a significant increase in tumor volume”. Besides, the half-life in data set [5] was about 19 h. Further, in data set [9], the HNSCC tumor initiation entry is recorded as “significantly reduced HNSCC tumor initiation” and the established tumor growth result is given as “didn't significantly inhibit established tumor growth”.
